Each block holds one compound with its values, some of them ahead of it.
Experiments:
[1] = system: human-derived eosinophils; assay: Eotaxin-induced chemotaxis of cultured eosinophils; assay type: cell-based; details: 10.00 µM compound, human eotaxin 1 x 10^-9 M, 37°C for 1 hour; for inhibition at 10 µM: Eosinophil
Experimental: The inhibitory activity of the compounds against eotaxin-mediated chemotaxis of human-derived eosinophils was determined assay described below. Eosinophils were prepared from culture of human cord blood mononuclear cells as described by Ohashi, H. et al., Int Arch Allergy Immunol. (1999) 118, 44-50. For the assay, eosinophils were resuspended at 1 x 10^7 cells/ml in assay medium (RPMI 1640 medium containing 0.1 % bovine serum albumin (BSA)). The chemotaxis assay was performed in a 24-well culture plate. Human eotaxin suspended in assay medium was added into wells at 1 x 10^-9 M with test compounds at various concentrations. For a positive control, eotaxin was added without a test compound, and for a negative control, neither eotaxin nor a test compound was added to the wells. Chemotaxicell (Kurabo Co., Ltd.) having 5 micrometers pore size were inserted into each well and 100 microliters of eosinophil suspension were added to the top chamber. The plates were incubated at 37°C for 1 hour. After incubation, migrated cells in lower wells were diluted and counted by particle size distribution analyzer (CDP-500, Sysmex Co., Ltd.).

[2] = target: T1, CCR-3 (Homo sapiens, UniProt P51677); assay: Eotaxin-induced chemotaxis of CCR-3 transfectant cells (CCR3/U937); assay type: cell-based; set-up: expressed in transfected cells; host or cells: U937; details: 10 µM test compound, eotaxin 1 x 10^-9 M; for inhibition at 10 µM: U-937
T1 sequence (P51677 1-355): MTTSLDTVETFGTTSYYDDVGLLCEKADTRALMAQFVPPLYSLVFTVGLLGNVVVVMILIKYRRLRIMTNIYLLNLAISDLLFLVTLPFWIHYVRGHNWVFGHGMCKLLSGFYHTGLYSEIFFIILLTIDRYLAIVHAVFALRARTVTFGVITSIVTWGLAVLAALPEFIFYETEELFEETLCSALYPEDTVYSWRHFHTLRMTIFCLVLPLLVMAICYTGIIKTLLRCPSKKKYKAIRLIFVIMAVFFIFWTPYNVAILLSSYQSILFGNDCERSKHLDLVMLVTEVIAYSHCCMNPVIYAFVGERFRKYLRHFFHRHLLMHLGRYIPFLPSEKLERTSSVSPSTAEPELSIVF

[3] = system: collagen-induced arthritis; assay: Type II collagen-induced arthritis in mice, clinical score; assay type: in vivo, Male DBA/1 mice; details: 20 mg/kg per day subcutaneously starting at 2nd immunization; versus control vehicle; Figure 1A/1B
[4] = system: bronchoconstriction provoked by acetylcholine; assay: Airway hyperreactivity: bronchoconstriction provoked by acetylcholine (murine asthma model, OVA-immunized mice); assay type: in vivo, Male BALB/c mice; details: administered intraperitoneally for 9 days, starting on the first day of antigen inhalation; Figure 2A
Experimental: (§1) Male BALB/c mice were immunized by an intraperitoneal injection of 10 µg OVA adsorbed to 1 mg aluminum hydroxide gel (alum). A booster injection of the same dose of alum-adsorbed OVA was given 5 days later. Unitnmunized control mice received saline.
(§2) Twelve days after primary immunization, both the immunized and unimmunized mice were exposed to aerosolized antigen. Aerosolization of OVA was performed using a nose-only aerosol chamber adapted for mice. Animals were exposed for 10 minutes to 5 mg/ml OVA aerosolized by an ultrasonic nebulizer (NE-U12, Omron, Tokyo, Japan) driven by a vacuum pump. The antigen bronchoprovocation was repeated on day 16 and day 20 under the same conditions. Compound No. 298 (CPD No. 298) was dissolved in saline containing 2 % DMSO and 2 % Cremophore and administered intraperitoneally for 9 days, starting on the first day of antigen inhalation.
Twenty-four hours after the final aerosol exposure, bronchoconstriction was measured by the overflow method of Konzett and Rössler. […] Bronchoconstriction was recorded on a flatbed recorder (Model FBR-252A, TOA Electronics Ltd., Tokyo, Japan). […]

[5] = system: eosinophil infiltration to bronchoalveolar lavage fluid (BALF); assay: Eosinophil infiltration in bronchoalveolar lavage fluid (BALF), murine asthma model; assay type: in vivo, Male BALB/c mice; details: administered intraperitoneally for 9 days; two hundred cells counted per slide; Figure 2C
Experimental: as §1, §2
Immediately after the measurement of airway reactivity to acethycholine, BALF was collected by lavaging whole-lung three times with 0.7-ml aliquots of physiological saline containing 0.1 % BSA via the tracheal cannula while gently massaging the thorax. The BALF recovered from one mouse was pooled, centrifuged, and the cells were resuspended in 100 µl saline containing 0.1 % BSA. Cell numbers were determined using a hemocytometer and 2 x 10^4 cells were cytecetrifuged onto a glass slide. […]

Structure (SMILES): C[C@H](c1ccccc1)N(CCCNC(=O)Nc1ccc(Br)cc1)CCCC(=O)O [Compound 61, 4-[[3-(4-Bromophenylureido)propyl][(1R)-1-phenylethyl]amino]-butanoic acid]
inhibition at 10 µM [1]: 100% | inhibition at 10 µM ([2]; CCR3/U937 cells (Table 3a)): 100%

Structure (SMILES): O=C(O)CCCN(CCCNC(=O)Nc1ccc(Cl)c(Cl)c1)C1CCCc2ccccc21 (stereo not shown) [Compound 65, 4-[[3-(3,4-Dichlorophenylureido)propyl](1,2,3,4-tetrahydro-1-naphthyl)amino]butanoic acid]
inhibition at 10 µM [1]: 100% | inhibition at 10 µM ([2]; CCR3/U937 cells (Table 3a)): 100%

Structure (SMILES): COc1cc(CN(CCCNC(=O)Nc2ccc(Br)cc2)CCCC(=O)O)cc(OC)c1OC [Compound 66]
Cultured Eosinophil Chemotaxis assay 10.00 µM (inhibition %) [1]: 44% | Chemotaxis Assay 10 µM (inhibition %) ([2]; CCR3/U937 cells (Table 3a)): 32%

Structure (SMILES): O=C(O)CCCN(CCCNC(=O)Nc1ccc(Br)cc1)Cc1ccccc1 [Compound 67]
Cultured Eosinophil Chemotaxis assay 10.00 µM (inhibition %) [1]: 71% | Chemotaxis Assay 10 µM (inhibition %) ([2]; CCR3/U937 cells (Table 3a)): 100%

Structure (SMILES): CC[N+](CC)(CCCNC(=O)Nc1ccc(Br)cc1)CCc1ccc(Cl)cc1 [Compound 92, [3-(4-Bromophenylureido)propyl][2-(4-chlorophenyl)ethyl]-diethylammonium iodide]
inhibition at 10 µM [1]: 100% | inhibition at 10 µM ([2]; CCR3/U937 cells (Table 3c)): 100%

More lines, main results first:

inhibition at 10 µM ([2]; CCR3/U937 cells (Table 3a)): 100%
Structure (SMILES): CCN(CCCNC(=O)Nc1ccccc1)CCc1ccc(Cl)cc1 [Compound 1, N-Phenylcarbamoyl-N'-[2-(4-chlorophenyl)ethyl]-N'-ethyl-1,3-diaminopropane]
inhibition at 10 µM [1]: 100%

inhibition at 10 µM ([2]; CCR3/U937 cells (Table 3a)): 100%
Structure (SMILES): CCN(CCCNC(=O)Nc1ccc(Br)cc1)CCc1ccc(Cl)cc1 [Compound 3, N-(4-Bromophenylcarbamoyl)-N'-[2-(4-chlorophenyl)ethyl]-N'-ethyl-1,3-diaminopropane]
inhibition at 10 µM [1]: 100%

Chemotaxis Assay 10 µM (inhibition %) ([2]; CCR3/U937 cells (Table 3a)): 46%
Structure (SMILES): COC(=O)CCCN(CCCNC(=O)Nc1ccc(Br)cc1)Cc1ccco1 [Compound 38]
Cultured Eosinophil Chemotaxis assay 10.00 µM (inhibition %) [1]: 11%

inhibition at 10 µM ([2]; CCR3/U937 cells (Table 3a)): 98%
Structure (SMILES): O=C(O)CCCN(CCCNC(=O)Nc1ccc(Br)cc1)C1CCCc2ccccc21 (stereo not shown) [Compound 60, 4-[[3-(4-Bromophenylureido)propyl](1,2,3,4-tetrahydro-1-naphthyl)amino]butanoic acid]
inhibition at 10 µM [1]: 100% | clinical score, collagen-induced arthritis [3]: marked prevention in clinical score

inhibition at 10 µM ([2]; CCR3/U937 cells (Table 3c)): 100%
Structure (SMILES): CC[N+](CC)(CCCNC(=O)Nc1ccccc1)CCc1ccc(Cl)cc1 [Compound 91, [3-(Phenylureido)propyl][2-(4-chlorophenyl)ethyl]-diethylammonium iodide]
inhibition at 10 µM [1]: 100%

inhibition at 10 µM ([2]; CCR3/U937 cells (Table 3c)): 100%
Structure (SMILES): CC[N+](CCCNC(=O)Nc1ccccc1)(CCc1ccc(Cl)cc1)Cc1ccc(Cl)cc1.[I-] (stereo not shown) [Compound 298, [3-(Phenylureido)propyl][2-(4-chlorophenyl)ethyl](4-chlorobenzyl)ethylammonium iodide]
bronchoconstriction provoked by acetylcholine [4]: Inhibition of bronchoconstriction | clinical score, collagen-induced arthritis [3]: marked prevention in clinical score | eosinophil infiltration to bronchoalveolar lavage fluid (BALF) [5]: significantly suppressed eosinophil infiltration

Source: patent publication EP1200395B1, “UREA DERIVATIVES AS INHIBITORS OF CCR-3 RECEPTOR” (KIRIN BEER KABUSHIKI KAISHA, priority 1999, dated 2001)
